Seven compounds from ChEMBL document CHEMBL5465560, “Selectivity Literature for EUbOPEN Chemogenomic Library” (2024) can be followed below.

The target in test [1] is Tyrosine-protein kinase BTK (Homo sapiens, UniProt Q06187). Kind of test: Selectivity interaction (SelectScreen profiling (Invitrogen)) EUB0000607a BTK. As to conditions: at 2 µM.
For test [2], the target named is T1, Protein kinase C epsilon type (Homo sapiens) (UniProt Q02156).
T1 sequence (whole entry): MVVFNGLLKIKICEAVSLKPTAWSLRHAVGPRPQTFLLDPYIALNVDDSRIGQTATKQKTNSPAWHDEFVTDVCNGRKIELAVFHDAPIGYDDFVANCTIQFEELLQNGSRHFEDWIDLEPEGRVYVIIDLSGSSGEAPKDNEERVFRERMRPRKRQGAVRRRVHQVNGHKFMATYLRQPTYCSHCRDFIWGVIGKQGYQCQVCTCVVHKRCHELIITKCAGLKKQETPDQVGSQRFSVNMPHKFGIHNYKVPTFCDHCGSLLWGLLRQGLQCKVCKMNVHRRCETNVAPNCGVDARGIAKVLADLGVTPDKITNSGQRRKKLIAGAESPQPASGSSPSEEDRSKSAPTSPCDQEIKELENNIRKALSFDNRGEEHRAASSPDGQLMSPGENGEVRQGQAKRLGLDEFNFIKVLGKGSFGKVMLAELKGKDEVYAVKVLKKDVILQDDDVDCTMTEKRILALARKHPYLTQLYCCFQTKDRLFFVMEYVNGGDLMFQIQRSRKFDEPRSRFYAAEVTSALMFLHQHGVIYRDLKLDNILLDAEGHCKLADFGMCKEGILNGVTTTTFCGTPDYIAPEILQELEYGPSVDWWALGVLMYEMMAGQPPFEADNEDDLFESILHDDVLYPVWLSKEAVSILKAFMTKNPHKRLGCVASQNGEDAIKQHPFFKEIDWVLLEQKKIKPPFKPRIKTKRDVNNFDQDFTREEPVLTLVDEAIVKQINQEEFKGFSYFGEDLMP
To be noted: at 10 µM.

Test [3] concerns the target T2, Mitogen-activated protein kinase kinase kinase 13 (Homo sapiens) (UniProt O43283).
T2 sequence (whole entry): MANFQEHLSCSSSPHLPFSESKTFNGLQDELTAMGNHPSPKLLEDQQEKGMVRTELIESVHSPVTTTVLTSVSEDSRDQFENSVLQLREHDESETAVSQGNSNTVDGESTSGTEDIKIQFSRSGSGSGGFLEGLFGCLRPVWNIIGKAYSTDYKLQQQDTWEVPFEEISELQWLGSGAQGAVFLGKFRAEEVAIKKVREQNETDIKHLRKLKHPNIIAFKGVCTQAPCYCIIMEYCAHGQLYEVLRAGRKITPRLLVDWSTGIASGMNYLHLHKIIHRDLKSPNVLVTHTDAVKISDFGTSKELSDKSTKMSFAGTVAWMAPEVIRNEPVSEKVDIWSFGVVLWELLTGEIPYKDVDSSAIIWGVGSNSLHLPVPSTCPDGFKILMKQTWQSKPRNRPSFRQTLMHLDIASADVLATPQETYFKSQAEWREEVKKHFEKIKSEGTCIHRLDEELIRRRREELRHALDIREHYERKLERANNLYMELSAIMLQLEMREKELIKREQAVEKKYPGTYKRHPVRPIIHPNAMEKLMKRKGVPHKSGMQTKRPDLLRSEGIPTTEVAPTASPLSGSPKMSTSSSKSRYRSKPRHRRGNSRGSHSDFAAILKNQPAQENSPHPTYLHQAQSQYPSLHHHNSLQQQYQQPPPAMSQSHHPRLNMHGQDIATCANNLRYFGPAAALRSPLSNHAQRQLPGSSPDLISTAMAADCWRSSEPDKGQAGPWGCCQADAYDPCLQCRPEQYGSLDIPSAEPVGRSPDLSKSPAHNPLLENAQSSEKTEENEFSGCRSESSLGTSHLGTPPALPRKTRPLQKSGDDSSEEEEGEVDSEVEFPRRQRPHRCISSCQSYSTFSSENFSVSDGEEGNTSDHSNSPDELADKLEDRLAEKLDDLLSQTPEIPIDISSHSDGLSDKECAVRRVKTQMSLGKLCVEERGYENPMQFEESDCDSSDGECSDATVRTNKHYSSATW
Kind of test: Selectivity interaction (KinomeScan (DiscoverX)) EUB0000229b MAP3K13. As to conditions: at 10 µM.

The target in test [4] is 5'-AMP-activated protein kinase catalytic subunit alpha-2 (Homo sapiens) (UniProt P54646). Kind of test: Selectivity interaction (KinomeScan (DiscoverX)) EUB0001079a PRKAA2. To be noted: at 1 µM.
Test [5] addresses Ribosomal protein S6 kinase alpha-4 (Homo sapiens) (UniProt O75676). Kind of test: Selectivity interaction (KinomeScan (DiscoverX)) EUB0001619a RPS6KA4. To be noted: at 1 µM.
Test [6] has as its target T3, PAN2-PAN3 deadenylation complex subunit PAN3 (Homo sapiens) (UniProt Q58A45).
T3 sequence (whole entry): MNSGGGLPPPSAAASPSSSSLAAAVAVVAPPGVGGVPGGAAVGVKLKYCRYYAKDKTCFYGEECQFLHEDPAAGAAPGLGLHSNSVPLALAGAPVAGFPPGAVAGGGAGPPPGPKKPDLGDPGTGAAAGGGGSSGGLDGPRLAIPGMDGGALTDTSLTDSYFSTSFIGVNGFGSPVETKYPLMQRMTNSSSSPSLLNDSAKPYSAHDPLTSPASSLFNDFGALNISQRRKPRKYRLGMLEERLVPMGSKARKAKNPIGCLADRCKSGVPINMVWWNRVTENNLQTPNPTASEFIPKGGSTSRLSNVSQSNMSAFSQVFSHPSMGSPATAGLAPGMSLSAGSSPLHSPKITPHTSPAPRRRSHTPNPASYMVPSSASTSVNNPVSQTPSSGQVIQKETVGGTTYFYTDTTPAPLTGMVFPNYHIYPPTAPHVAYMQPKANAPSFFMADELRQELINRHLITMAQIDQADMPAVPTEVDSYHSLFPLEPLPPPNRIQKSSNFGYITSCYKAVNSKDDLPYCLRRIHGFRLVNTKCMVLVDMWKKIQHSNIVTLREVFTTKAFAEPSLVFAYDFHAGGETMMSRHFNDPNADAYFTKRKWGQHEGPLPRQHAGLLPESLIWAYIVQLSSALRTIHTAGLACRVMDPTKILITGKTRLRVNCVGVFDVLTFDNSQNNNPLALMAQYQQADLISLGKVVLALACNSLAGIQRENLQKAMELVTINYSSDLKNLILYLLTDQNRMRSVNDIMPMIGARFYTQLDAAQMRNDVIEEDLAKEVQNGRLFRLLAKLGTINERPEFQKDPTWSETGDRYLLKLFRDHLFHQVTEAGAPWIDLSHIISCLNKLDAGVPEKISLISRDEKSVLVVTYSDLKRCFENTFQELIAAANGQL
Kind of test: Selectivity interaction (ActivX KiNativ screen (ex vivo kinase selectivity in human PBMCs)) EUB0001619a PAN3. Format: cell-based. To be noted: PBMC, at 1 µM.

Test [7] has as its target Substance-K receptor (Homo sapiens) (UniProt P21452). Kind of test: Selectivity interaction (Eurofins CEREP Diversity Profile (receptors and ion channels)) EUB0000279b TACR2. To be noted: at 10 µM.
For test [8], the target named is Serine/threonine-protein kinase PLK3 (Homo sapiens, UniProt Q9H4B4). Kind of test: Selectivity interaction (KinomeScan (DiscoverX)) EUB0000595a PLK3. To be noted: at 10 µM.

Structures are written as SMILES.

5'-AMP-activated protein kinase catalytic subunit alpha-2 (Homo sapiens), sequence (P54646 whole entry, looked up): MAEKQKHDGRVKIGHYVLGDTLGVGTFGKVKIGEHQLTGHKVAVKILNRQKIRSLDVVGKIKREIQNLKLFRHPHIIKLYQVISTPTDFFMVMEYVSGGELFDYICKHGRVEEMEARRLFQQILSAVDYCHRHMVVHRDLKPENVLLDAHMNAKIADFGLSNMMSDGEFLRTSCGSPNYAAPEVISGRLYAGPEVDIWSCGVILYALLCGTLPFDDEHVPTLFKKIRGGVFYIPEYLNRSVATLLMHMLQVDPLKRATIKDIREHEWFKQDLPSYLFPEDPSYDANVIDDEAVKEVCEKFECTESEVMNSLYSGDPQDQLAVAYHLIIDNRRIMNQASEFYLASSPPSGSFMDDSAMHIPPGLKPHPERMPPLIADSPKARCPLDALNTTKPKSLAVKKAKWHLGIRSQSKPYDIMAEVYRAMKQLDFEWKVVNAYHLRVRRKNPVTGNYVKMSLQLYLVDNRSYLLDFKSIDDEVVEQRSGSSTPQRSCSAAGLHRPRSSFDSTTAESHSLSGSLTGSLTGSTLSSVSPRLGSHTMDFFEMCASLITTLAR
Tyrosine-protein kinase BTK, sequence (Q06187 whole entry): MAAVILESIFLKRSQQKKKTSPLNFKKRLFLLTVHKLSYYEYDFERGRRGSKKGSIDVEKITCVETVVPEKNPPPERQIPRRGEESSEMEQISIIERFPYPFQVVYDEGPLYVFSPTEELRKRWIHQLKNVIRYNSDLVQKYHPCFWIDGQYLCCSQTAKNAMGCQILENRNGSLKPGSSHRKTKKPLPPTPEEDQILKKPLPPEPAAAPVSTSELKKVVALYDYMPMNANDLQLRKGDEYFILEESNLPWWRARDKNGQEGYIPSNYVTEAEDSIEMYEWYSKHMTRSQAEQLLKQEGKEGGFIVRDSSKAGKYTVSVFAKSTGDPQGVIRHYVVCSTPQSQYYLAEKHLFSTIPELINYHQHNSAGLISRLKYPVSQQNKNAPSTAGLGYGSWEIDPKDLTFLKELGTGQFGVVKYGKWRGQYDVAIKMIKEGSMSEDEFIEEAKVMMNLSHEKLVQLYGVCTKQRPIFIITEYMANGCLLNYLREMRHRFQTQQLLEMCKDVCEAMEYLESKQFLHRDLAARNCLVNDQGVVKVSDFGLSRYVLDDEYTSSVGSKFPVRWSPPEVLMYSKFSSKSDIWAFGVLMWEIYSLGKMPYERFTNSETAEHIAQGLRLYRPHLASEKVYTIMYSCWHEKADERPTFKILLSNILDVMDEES
Ribosomal protein S6 kinase alpha-4 (Homo sapiens), sequence (O75676 whole entry, looked up): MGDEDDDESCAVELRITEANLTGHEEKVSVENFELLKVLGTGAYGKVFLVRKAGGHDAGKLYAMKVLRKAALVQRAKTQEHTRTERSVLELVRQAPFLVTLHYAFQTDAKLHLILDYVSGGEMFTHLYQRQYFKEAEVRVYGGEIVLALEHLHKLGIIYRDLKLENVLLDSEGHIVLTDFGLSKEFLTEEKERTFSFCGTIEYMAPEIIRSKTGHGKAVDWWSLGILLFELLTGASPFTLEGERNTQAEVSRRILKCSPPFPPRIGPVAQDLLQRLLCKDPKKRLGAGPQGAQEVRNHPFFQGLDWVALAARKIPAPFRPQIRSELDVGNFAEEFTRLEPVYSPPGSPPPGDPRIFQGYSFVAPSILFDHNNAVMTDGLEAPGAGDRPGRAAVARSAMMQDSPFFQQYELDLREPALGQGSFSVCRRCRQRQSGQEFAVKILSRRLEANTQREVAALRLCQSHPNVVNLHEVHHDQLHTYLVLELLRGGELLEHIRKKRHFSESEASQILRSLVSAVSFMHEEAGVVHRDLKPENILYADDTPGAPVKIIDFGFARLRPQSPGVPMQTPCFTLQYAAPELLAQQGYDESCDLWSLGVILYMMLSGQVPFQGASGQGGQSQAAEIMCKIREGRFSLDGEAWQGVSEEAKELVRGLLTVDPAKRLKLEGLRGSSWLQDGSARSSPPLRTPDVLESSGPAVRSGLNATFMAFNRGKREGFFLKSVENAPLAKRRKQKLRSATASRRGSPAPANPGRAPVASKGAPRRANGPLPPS
Serine/threonine-protein kinase PLK3, sequence (Q9H4B4 whole entry, looked up): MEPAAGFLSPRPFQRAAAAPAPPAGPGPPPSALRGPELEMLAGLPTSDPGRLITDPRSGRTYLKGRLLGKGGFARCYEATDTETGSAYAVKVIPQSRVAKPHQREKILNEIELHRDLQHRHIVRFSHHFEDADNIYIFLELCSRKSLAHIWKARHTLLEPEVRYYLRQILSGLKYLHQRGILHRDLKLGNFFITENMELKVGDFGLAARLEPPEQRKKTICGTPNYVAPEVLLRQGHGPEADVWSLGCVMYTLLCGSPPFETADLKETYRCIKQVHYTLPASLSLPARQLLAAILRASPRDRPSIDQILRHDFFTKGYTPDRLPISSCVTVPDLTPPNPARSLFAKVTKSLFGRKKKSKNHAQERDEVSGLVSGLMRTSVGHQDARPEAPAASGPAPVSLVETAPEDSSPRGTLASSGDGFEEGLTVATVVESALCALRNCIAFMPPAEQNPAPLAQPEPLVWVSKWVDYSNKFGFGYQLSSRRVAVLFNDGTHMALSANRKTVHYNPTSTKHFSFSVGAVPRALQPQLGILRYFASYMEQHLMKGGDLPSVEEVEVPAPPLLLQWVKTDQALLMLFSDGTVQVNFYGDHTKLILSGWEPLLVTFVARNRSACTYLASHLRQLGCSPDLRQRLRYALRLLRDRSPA
Substance-K receptor (Homo sapiens), sequence (P21452 whole entry): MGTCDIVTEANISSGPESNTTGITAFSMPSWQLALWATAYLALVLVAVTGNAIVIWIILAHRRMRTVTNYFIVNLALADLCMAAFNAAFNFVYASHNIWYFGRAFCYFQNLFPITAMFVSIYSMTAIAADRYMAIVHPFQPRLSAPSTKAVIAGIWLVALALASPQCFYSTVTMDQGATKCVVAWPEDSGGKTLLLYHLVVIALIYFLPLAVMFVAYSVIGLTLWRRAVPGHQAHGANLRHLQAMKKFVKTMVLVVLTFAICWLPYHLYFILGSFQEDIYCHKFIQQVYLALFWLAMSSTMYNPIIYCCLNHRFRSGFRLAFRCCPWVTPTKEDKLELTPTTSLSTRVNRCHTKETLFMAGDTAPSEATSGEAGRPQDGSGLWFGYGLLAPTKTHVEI

`CNC(=O)Nc1ccc(-c2nc(N3CC4CCC(C3)O4)c3cnn(C4CCC5(CC4)OCCO5)c3n2)cc1` had a % of inhibition in test [1] of 3%.

On to `Cc1cc([C@@H](C)Nc2ccccc2C(=O)O)c2nc(N3CCOCC3)cc(=O)n2c1` [AZD-6482], for which, in test [2], the % of control is 100%.

In test [3], `COc1cc(N(C)c2ccnc3ccc(C(F)(F)F)cc23)cc(OC)c1OC` yielded a % binding of 100%.

Compound `Nc1cnc(N2CCc3cc(S(=O)(=O)Nc4c(F)cc(Cl)cc4F)cc(N4CCCC4=O)c32)nc1` [TP-020n] had a % of control in test [4] of 100%.

In the case of `N#Cc1cccc(-c2c[nH]c3ncnc(N4CCOCC4)c23)c1`, the % of control in test [5] is 100%. The % of inhibition in test [6] stood at 15%.

For the compound `CC(=O)c1cc(-c2ccccc2OCC2CC2)c2ncccn12`, the % of control in test [7] was 92%.

The compound `COCC(=O)NC/C=C/c1ccc2ncnc(Nc3ccc(Oc4ccc(C)nc4)c(C)c3)c2c1` [CP-724714] displayed a % of control in test [8] of 99%.
